{"source": "patent US11092602B2", "about": "“Methods and compositions relating to proteasome inhibitor resistance” (Whitehead Institute for Biomedical Research, priority 2015, dated 2021)", "key": {"HepG2 cells": {"test_system": "HepG2 cells", "test": "Cell viability assay (resazurin) in HepG2 cells expressing proteasome subunit shRNAs", "format": "cell-based, human", "source_text": "Next, we asked if a simple reduction in the expression of 19S subunits could protect against the toxicity of proteasome inhibitors. We assembled a panel of shRNA-expressing lentiviruses targeting seventeen 19S subunits and three 20S subunits (PSMB5, PSMB7 and PSMA3). Each gene was targeted separately using four different shRNAs (FIG. 2, Table S2) and we averaged the effects on viability from these four hairpins.\nFor the analysis of multiple proteasome subunit knockdown 80 shRNA targeting 20 proteasome subunits (4 different shRNAs) and 13 control shRNAs (Table S2) in pLKO lentiviral vectors from the RNAi consortium shRNA library were utilized. Cells were plated in 96 wells with the volume of 100 μL media at the concentration of 2500 cells/well. 24 hours after plating media was discarded and 50 μl with 7.5-10 μg/μ1 of polybrene and 7 μl of purified virus was added. After incubation for 24 hours the media was discarded and 200 μl of fresh media with 1 μg/ml puromycin was added. Bortezomib was added where specified. pLKO lentiviral vectors from the RNAi consortium shRNA library targeting the PSMC5 and PSMD2 (Table 2) were further used to create HepG2 and T47D stably overexpressing these shRNAs by selection with puromycin 1 μg/ml for one week.\nRelative cell growth and survival were measured in 96-well microplate format in the shRNA experiments and in 384 well format in the drug toxicity assays, by using the fluorescent detection of resazurin dye reduction as an endpoint (544 nm excitation and 590 nm emission). 2,500 cells in 96 wells format or 1,000 cells in 384 well format were plated 24 hours before compound exposure (for 72 hours or indicated time). Each analysis was performed at least with three replicas."}, "20S proteasome": {"target": "20S proteasome (Homo sapiens, UniProt P28074)", "test": "Native gel analysis of proteasomal complexes with Suc-LLVY-AMC substrate overlay", "format": "biochemical", "conditions": "12 nM bortezomib for 24 hours", "source_text": "We first separated 20S and 26S proteasomes on native gels and examined effects on the relative levels of 26S and 20S proteasome complexes. In cells with reduced levels of either PSMC5 or PSMD2, 26S proteasome complexes were reduced and 20S proteasome complexes were increased (FIGS. 2E and 2F). These changes persisted in the presence of bortezomib (FIGS. 2E and 2F). Next, we assayed their activity with a fluorescently labeled substrate.\nProteasomal samples were loaded on a nondenaturing 4% polyacrylamide gel using the protocol described previously (Tsvetkov et al., 2014). Gels were either overlaid with Suc-LLVY-AMC (50 μM) for assessment of proteasomal activity or transferred to nitrocellulose membranes where immunoblotting specific for proteasomal subunits was conducted. Proteasomal activity was assessed by measuring the hydrolysis of Suc-LLVY-AMC by substrate overlay assays in native polyacrylamide gels with 50 mM Tris-HCl, pH 7.8, 5 mM MgCl2, 1 mM DTT, 2 mM ATP, 50 μM Suc-LLVY-AMC peptide, and incubating the gels at 37° C. for 30-60 min. Activity was visualized by transilluminated by a UV light and photographed with BIORAD Chemidoc imaging system."}, "T47D cells [1]": {"test_system": "T47D cells", "test": "Cell viability of T47D cells with doxycycline-inducible PSMD2 shRNA", "format": "cell-based, human", "protocol": "T47D cells harboring a doxycycline inducible control shRNA (GFP) or a doxycycline-inducible PSMD2 shRNA (TurboRFP) were incubated with doxycycline for 3 days. Cells were then split and grown in the absence of Dox and proteasome inhibitors were then added at various concentrations. Cells were maintained in culture and then counted.\nFor the generation of the T47D Tet-inducible PSMD2 knockdown cell line—the TRIPZ vector with an inducible shRNA targeting PSMD2 was purchased from Dharmacon (clone V3THS_403760). It was introduced to the T47D cells according to manufactures protocol and cells were selected with puromycin 1 μg/ml for one week. The cells were exposed to doxycycline for 24 hours and cells were FACS sorted for the top 10% of most RFP expressing cells (highest expression of shRNA). The cells were further cultured in the absence of doxycycline and PSMD2 knockdown was induced as specified in the relevant Examples."}, "T47D cells [2]": {"test_system": "T47D cells", "test": "Competition co-culture of shPSMD2-RFP and shControl-GFP T47D cells, FACS and microscopy", "format": "cell-based, human", "conditions": "48 hours", "procedure": "We created two cell lines—one line that expresses red fluorescent protein (turboRFP) and the doxycycline-inducible PSMD2-targeting shRNA and another line that expresses green fluorescent protein (GFP) and a doxycycline-inducible control shRNA (FIG. 6A). First, we induced shRNA expression with doxycycline for 48 hours. After recovery, we mixed shPSMD2-RFP and shControl-GFP cells at different ratios (either 1:1, 1:2, 1:5 or 1:10), adding the cells with reduced PSMD2 as the minority subpopulation. Twenty-four hours after plating, we treated these mixed populations of cells for 48 hours with increasing concentrations of bortezomib (5, 7.5 or 10 nM). We allowed the cells to recover in the absence of bortezomib and then we quantified the red and green cells by FACS analysis (FIG. 6A) and captured representative images by fluorescence microscopy (FIG. 6B).\nThe experiment described in Example 10 was repeated with minor differences using a panel of different proteasome inhibitors: MLN2238, MLN9708, and oprozomib T47D cells harboring a doxycycline inducible control shRNA (GFP) or a doxycycline-inducible PSMD2 shRNA (TurboRFP) were incubated with doxycycline for 3 days. Cells were collected, counted, and plated at a 1:10 ratio of TurboRFP-expressing PSMD2 shRNA cells/GFP expression control shRNA cells in the absence of Dox. Proteasome inhibitors were added at the specified concentrations and cells were maintained in culture. Cells were allowed to recover in the absence of the proteasome inhibitor and then analyzed by FACS (FIG. 8B, top) or visualized by microscopy (FIG. 8B, bottom). In the absence of proteasome inhibitors, the initial plating ratio of these cells (1:10) was maintained over the duration of the experiment (FIG. 8B). […] The effect was concentration-dependent in that higher concentrations elicited more substantial shifts.\ncells were trypsinized in 100 μL Accumax® solution and further diluted into 100 μl PBSx1. The number of cells with red or green fluorescent proteins was measured by MACSQuant® VYB according to manufactures protocol. Images of RFP and GFP were created by overlaying images using Fiji software."}, "IMR32 and Kelly cells": {"test_system": "IMR32 and Kelly cells", "test": "CellTiter-Glo viability of IMR32 and Kelly neuroblastoma cells", "format": "cell-based", "conditions": "0.001 um to 0.100 um; 72 hours", "procedure": "IMR32 and Kelly cells were each cultured in the presence of bortezomib at concentrations ranging from 0.001 um to 0.100 um. […] The fold viability relative to culture in the absence of bortezomib was determined for each cell line.\nThe fold viability relative to culture in the absence of the compound was determined for each cell line."}}, "note": "“Also recorded” adds a separate entry of the source.", "data": [{"smiles": "CC(C)C[C@H](NC(=O)[C@H](Cc1ccccc1)NC(=O)c1cnccn1)B(O)O", "note": "[bortezomib]", "values": [{"measurement": "proliferation of lines stably expressing shRNA targeting PSMC5 or PSMD2", "setting": "HepG2 cells; HepG2, 12 nM bortezomib", "value": "continued proliferating"}, {"measurement": "concentration of bortezomib that completely inhibited the proliferation of control cells", "setting": "HepG2 cells; HepG2 control cells", "value": 12, "unit": "nM"}, {"measurement": "EC50 values increased versus parental line", "setting": "HepG2 cells; HepG2 lines with shRNA-driven modest reduction in PSMD2, 4 days", "value": "three to six"}, {"measurement": "20S proteasome activity", "setting": "20S proteasome; cells with reduced PSMC5 or PSMD2", "value": "maintained a significant level of 20S proteasome activity"}, {"measurement": "20S proteasome function", "setting": "20S proteasome; control cells", "value": "nearly complete inactivation of 20S proteasome function"}, {"measurement": "resistance upon doxycycline-induced reduction of PSMD2", "setting": "T47D cells [1]; PSMD2 shRNA versus control", "value": "significantly increased resistance; also recorded: increase in resistance"}, {"measurement": "resistance of cells harboring the PSMD2 shRNA versus parental line (EC50)", "setting": "T47D cells [1]; doxycycline 3 days, 96 hour culture", "value": "considerably more resistant"}, {"measurement": "shift of surviving cell populations towards shPSMD2-RFP cells", "setting": "T47D cells [2]; 5 nM, ratios 1:1, 1:2, 1:5, 1:10", "value": "substantially shifted the populations of surviving cells"}, {"measurement": "shift of surviving cell populations towards shPSMD2-RFP cells", "setting": "T47D cells [2]; 7.5 nM and 10 nM", "value": "even more substantial shifts"}, {"measurement": "resistance of IMR32 cells relative to Kelly cells", "setting": "IMR32 and Kelly cells", "value": "increased resistance"}]}]}
